According to patent publication US6596718B1, “7-Morpholin-4yl-benzothiazole amide derivatives” (Hoffmann-La Roche Inc., priority 2001, dated 2003):

Columns and labels:
[1] = molecular target: T1, human adenosine A1 receptor (Homo sapiens, UniProt P30542); assay: [3H]-DPCPX binding assay, human adenosine A1 receptor (SPA, CHO cell membranes); conditions: recombinant human A1 in CHO membranes; [3H]-DPCPX 0.6 nM; Ki by Cheng-Prussoff; read-out: hA1 (pKi) (converted)
T1 construct: expressed in transfected cells; host or cells: CHO cells, Semliki Forest virus expression system; membrane preparation
T1 sequence (P30542 1-326): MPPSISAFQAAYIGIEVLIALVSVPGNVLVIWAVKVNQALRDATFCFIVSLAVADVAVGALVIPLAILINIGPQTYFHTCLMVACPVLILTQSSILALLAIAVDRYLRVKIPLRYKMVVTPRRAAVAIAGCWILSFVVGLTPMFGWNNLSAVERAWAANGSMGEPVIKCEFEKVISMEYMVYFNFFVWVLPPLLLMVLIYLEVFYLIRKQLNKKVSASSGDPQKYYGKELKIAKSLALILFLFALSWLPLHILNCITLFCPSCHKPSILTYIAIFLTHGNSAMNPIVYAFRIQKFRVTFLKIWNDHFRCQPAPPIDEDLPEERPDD
Procedure: Human Adenosine A1 Receptor
The human adenosine A1 receptor was recombinantly expressed in chinese hamster ovary (CHO) cells using the semlilki forest virus expression system. Cells were harvested, washed twice by centrifugation, homogenized and again washed by centrifugation. The final washed membrane pellet was suspended in a Tris (50 mM) buffer containing 120 mM NaCl, 5 mM KCl, 2 mM CaCl2 and 10 mM MgCl2 (pH 7.4) (buffer A). The [^3H]-DPCPX (([propyl-^3H]8-cyclopentyl-1,3-dipropyxanthine); 0.6 nM) binding assay was carried out in 96-well plates in the presence of 2.5 μg of membrane protein, 0.5 mg of Ysi-poly-l-lysine SPA beads and 0.1 U adenosine deaminase in a final volume of 200 μl of buffer A. Non-specific binding was defined using xanthine amine congener (XAC; 2 μM). Compounds were tested at 10 concentrations from 10 μM-0.3 nM. All assays were conducted in duplicate and repeated at least two times. Assay plates were incubated for 1 hour at room temperature before centrifugation and then bound ligand determined using a Packard Topcount scintillation counter. IC50, the concentration where 50% of the […] binding is displaced, values were calculated using a non-linear curve fitting program and ki values calculated using the Cheng-Prussoff equation.

SMILES	Ki [1] [nM]	melting point [°C]
COc1ccc(N2CCOCC2)c2sc(C(=O)NCc3ccccc3Cl)nc12 [Example 16, 4-Methoxy-7-morpholin-4-yl-benzothiazole-2-carboxylic acid 2-chloro-benzylamide]	3980	114 to 116
COc1ccc(N2CCOCC2)c2sc(C(=O)NCCCc3ccccc3)nc12 [Example 40, 4-Methoxy-7-morpholin-4-yl-benzothiazole-2-carboxylic acid (3-phenyl-propyl)-amide]	–	147
COc1ccc(N2CCOCC2)c2sc(C(=O)Nc3ccccc3)nc12 [Example 4, 4-Methoxy-7-morpholin-4-yl-benzothiazole-2-carboxylic acid phenylamide]	–	190 to 191
COc1ccc(N2CCOCC2)c2sc(C(=O)NCC(=O)c3ccccc3)nc12 [Example 39, 4-Methoxy-7-morpholin-4-yl-benzothiazole-2-carboxylic acid (2-oxo-2-phenyl-ethyl)-amide]	–	197 to 200
COc1cccc(CNC(=O)c2nc3c(OC)ccc(N4CCOCC4)c3s2)c1 [Example 27, 4-Methoxy-7-morpholin-4-yl-benzothiazole-2-carboxylic acid 3-methoxy-benzylamide]	–	140 to 144
COc1ccc(N2CCOCC2)c2sc(C(=O)NCc3cccs3)nc12 [Example 23, 4-Methoxy-7-morpholin-4-yl-benzothiazole-2-carboxylic acid (thiophen-2-ylmethyl)-amide]	–	174 to 175
COc1ccc(N2CCOCC2)c2sc(C(=O)NCc3cccnc3)nc12 [Example 18, 4-Methoxy-7-morpholin-4-yl-benzothiazole-2-carboxylic acid (pyridin-3-ylmethyl)-amide]	–	181 to 184
COc1ccc(N2CCOCC2)c2sc(C(=O)NCc3ccccn3)nc12 [Example 13, 4-Methoxy-7-morpholin-4-yl-benzothiazole-2-carboxylic acid (pyridin-2-ylmethyl)-amide]	6310	181 to 182
COc1ccc(N2CCOCC2)c2sc(C(=O)NCCc3ccccn3)nc12 [Example 38, 4-Methoxy-7-morpholin-4-yl-benzothiazole-2-carboxylic acid (2-pyridin-2-yl-ethyl)-amide]	–	184 to 185
COc1cccc(NC(=O)c2nc3c(OC)ccc(N4CCOCC4)c3s2)c1 [Example 11, 4-Methoxy-7-morpholin-4-yl-benzothiazole-2-carboxylic acid (3-methoxy-phenyl)-amide]	–	160
COc1ccc(N2CCOCC2)c2sc(C(=O)NCCN3Cc4ccccc4C3=O)nc12 [Example 29, 4-Methoxy-7-morpholin-4-yl benzothiazole-2-carboxylic acid [2-(1-oxo-1,3-dihydro-isoindol-2-yl)-ethyl]-amide]	–	199 to 205
COc1ccc(N2CCOCC2)c2sc(C(=O)NC[C@@H]3CCCC[C@H]3O)nc12 (stereo in doubt) [Example 43, 4-Methoxy-7-morpholin-4-yl-benzothiazole-2-carboxylic acid (2-hydroxy-cyclohexylmethyl)-amide]	–	133 to 135

Results, then the molecule that gave them:

Ki [1] [nM]	melting point [°C]	SMILES
6310	150 to 153	COc1ccc(N2CCOCC2)c2sc(C(=O)NCCc3ccc(F)cc3)nc12 [Example 59, 4-Methoxy-7-morpholin-4-yl-benzothiazole-2-carboxylic acid [2-(4-fluoro-phenyl)-ethyl]-amide]
1580	125 to 127	COc1ccc(N2CCOCC2)c2sc(C(=O)NCC(=O)c3sccc3Cl)nc12 [Example 73, 4-Methoxy-7-morpholin-4-yl-benzothiazole-2-carboxylic acid [2-(3-chloro-thiophen-2-yl)-2-oxo-ethyl]-amide]
2000	153 to 154	COc1ccc(N2CCOCC2)c2sc(C(=O)NCCc3ccc(Cl)cc3)nc12 [Example 62, 4-Methoxy-7-morpholin-4-yl-benzothiazole-2-carboxylic acid [2-(4-chloro-phenyl)-ethyl]-amide]
1580	158 to 160	COc1ccccc1CCNC(=O)c1nc2c(OC)ccc(N3CCOCC3)c2s1 [Example 49, 4-Methoxy-7-morpholin-4-yl-benzothiazole-2-carboxylic acid [2-(2-methoxy-phenyl)-ethyl]-amide]
–	174 to 175	COc1ccc(N2CCOCC2)c2sc(C(=O)NC(C)c3csc(C)n3)nc12 (stereo not drawn) [Example 80, 4-Methoxy-7-morpholin-4-yl-benzothiazole-2-carboxylic acid [1-(2-methyl-thiazol-4-yl)-ethyl]-amide]
–	145 to 147	COc1ccc(N2CCOCC2)c2sc(C(=O)Nc3ccc(C)nc3)nc12 [Example 82, 4-Methoxy-7-morpholin-4-yl-benzothiazole-2-carboxylic acid (6-methyl-pyridin-3-yl)-amide]
–	129 to 131	COc1ccc(N2CCOCC2)c2sc(C(=O)NCCc3ccccc3C)nc12 [Example 74, 4-Methoxy-7-morpholin-4-yl-benzothiazole-2-carboxylic acid (2-o-tolyl-ethyl)-amide]
–	222 to 224	COc1ccc(N2CCOCC2)c2sc(C(=O)NNC(=O)c3cccnc3)nc12 [Example 44, Nicotinic acid N′-(4-methoxy-7-morpholin-4-yl-benzothiazole-2-carbonyl)-hydrazide]
–	226 to 227	COc1ccc(N2CCOCC2)c2sc(C(=O)NNc3ccccc3)nc12 [Example 51, 4-Methoxy-7-morpholin-4-yl-benzothiazole-2-carboxylic acid N′-phenyl-hydrazide]
–	206 to 207	COc1ccc(N2CCOCC2)c2sc(C(=O)Nc3ccncc3)nc12 [Example 53, 4-Methoxy-7-morpholin-4-yl-benzothiazole-2-carboxylic acid pyridin-4-ylamide]
–	173 to 174	COc1ccc(N2CCOCC2)c2sc(C(=O)NCc3ccc(C)o3)nc12 [Example 70, 4-Methoxy-7-morpholin-4-yl-benzothiazole-2-carboxylic acid (5-methyl-furan-2-ylmethyl)-amide]
–	171 to 173	COc1ccc(N2CCOCC2)c2sc(C(=O)NCC(=O)c3cccs3)nc12 [Example 78, 4-Methoxy-7-morpholin-4-yl-benzothiazole-2-carboxylic acid (2-oxo-2-thiophen-2-yl-ethyl)-amide]
–	136 to 138	COc1ccc(N2CCOCC2)c2sc(C(=O)NCCc3ccc(C)cc3)nc12 [Example 61, 4-Methoxy-7-morpholin-4-yl-benzothiazole-2-carboxylic acid (2-p-tolyl-ethyl)-amide]
–	> 260	COc1ccc(N2CCOCC2)c2sc(C(=O)NNC(=O)c3ccccc3)nc12 [Example 46, 4-Methoxy-7-morpholin-4-yl-benzothiazole-2-carboxylic acid N′-benzoyl-hydrazide]
–	206 to 208	COc1ccc(N2CCOCC2)c2sc(C(=O)NCC(=O)c3ccc4c(c3)OCCO4)nc12 [Example 75, 4-Methoxy-7-morpholin-4-yl benzothiazole-2-carboxylic acid [2-(2,3-dihydro-benzo[1,4]dioxin-6-yl)-2-oxo-ethyl]-amide]
–	166 to 168	COc1ccc(N2CCOCC2)c2sc(C(=O)NC(c3ccccc3)c3ccccc3)nc12 [Example 47, 4-Methoxy-7-morpholin-4-yl-benzothiazole-2-carboxylic acid benzhydryl-amide]
–	187 to 189	COc1ccc(N2CCOCC2)c2sc(C(=O)NCc3csc4ccccc34)nc12 [Example 69, 4-Methoxy-7-morpholin-4-yl-benzothiazole-2-carboxylic acid (benzo[b]thiophen-3-ylmethyl)-amide]
–	185 to 188	COc1ccc(N2CCOCC2)c2sc(C(=O)NCCc3ccncc3)nc12 [Example 48, 4-Methoxy-7-morpholin-4-yl-benzothiazole-2-carboxylic acid (2-pyridin-4-yl-ethyl)-amide]
